Measured values: patent US20180094139A1 (priority 2014, published 2018)

Key:
[1] = biological target: BlaC (Mycobacterium tuberculosis, UniProt P9WKD3); assay type: biochemical
[2] = tested on: β-lactamase-expressing bacteria; assay type: cell-based
[3] = Stability of fluorogenic probes in MES buffer (spontaneous hydrolysis); assay type: physicochemical; conditions: 0.1 M, pH 6.6, room temperature (22° C.)
[4] = tested on: E. cloacae with AmpC β-lactamase; assay type: cell-based; conditions: 10^5 c.f.u., probe 10 μM, 3 h incubation
[5] = tested on: K. pneumoniae with Class A carbapenemase KPC; assay type: cell-based; conditions: 10^5 c.f.u., probe 10 μM, 3 h incubation
[6] = tested on: penicillinase isolated from Bacillus cereus (Pen); conditions: probe 10 μM, 3 h incubation with diluted Pen
Method: Data were collected in a 384-well plate with a total volume of 25 μL in each well. Fluorescence was measured with excitation at 490 nm and emission at 535 nm. Relative fluorescence represents the difference in fluorescence intensity with and without β-lactamase incubation. […] Error bars are ±SD.

Chain of BlaC (P9WKD3 35-307 limits assumed): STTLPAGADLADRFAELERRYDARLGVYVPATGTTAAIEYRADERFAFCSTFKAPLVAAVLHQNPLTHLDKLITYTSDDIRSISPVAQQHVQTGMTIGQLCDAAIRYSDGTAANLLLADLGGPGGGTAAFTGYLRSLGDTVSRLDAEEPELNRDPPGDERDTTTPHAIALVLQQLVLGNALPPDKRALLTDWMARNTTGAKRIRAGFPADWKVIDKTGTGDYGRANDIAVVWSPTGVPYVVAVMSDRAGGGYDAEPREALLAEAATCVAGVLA

SMILES | catalytic efficiency (kcat/Km) for BlaC over TEM-1 Bla [1] | fluorescence signal with β-lactamase-expressing bacteria (specificity) [2] | spontaneous hydrolysis rate [3] [s⁻¹] | fluorescent intensity ratio of AmpC to BlaC (IAmpC/IBlaC) [4] | fluorescent intensity ratio IKPC/IBlaC [5] | activity towards penicillinase (Pen) [6]
O=C(Cc1ccccc1)N[C@@H]1C(=O)N2C(C(=O)O)=C(COc3ccc4ccc(=O)oc4c3)C3(CC3)S[C@H]12 [CDC-Cp, (6R,7R)-3-(((2-oxo-2H-chromen-7-yl)oxy)methyl)-7-(2-phenylacetamido)-2-azaspiro[2,1′-cyclopropane]-3-cephem-2-carboxylic acid] | around 10 fold |  |  |  |  | 
CO[C@@]1(NC(=O)Cc2ccccc2)C(=O)N2C(C(=O)O)=C(COc3ccc4ccc(=O)oc4c3)C3(CC3)S[C@@H]21 [CDC-OMe-Cp, (6R,7S)-7-methoxy-3-(((2-oxo-2H-chromen-7-yl)oxy)methyl)-7-(2-phenylacetamido)-2-azaspiro[2,1′-cyclopropane]-3-cephem-4-carboxylic acid] | 6.3×10^4 fold |  |  |  |  | 
COc1ccc(-c2c3ccc(=O)cc-3oc3cc(OCc4ccc(OCC5=C(C(=O)O)N6C(=O)[C@@H](NC(=O)Cc7ccccc7)[C@H]6SC5)cc4)ccc23)c(C)c1 [CDG-1] |  | fluorescent signal turn-on with all bacteria |  |  |  | 
COc1ccc(-c2c3ccc(=O)cc-3oc3cc(OCc4ccc(OCC5=C(C(=O)O)N6C(=O)[C@](NC(=O)Cc7ccccc7)(OC)[C@H]6SC5)cc4)ccc23)c(C)c1 [CDG-OMe] | 8,900 fold | much better selectivity for BlaC over other β-lactamase expressing bacteria | 1.9e-07 | 1/9 | 1/4 | some activity
